{
  "source": "patent US20070196500A1",
  "about": "“Composition for oral administration of tamsulosin hydrochloride and controlled release granule formulation comprising same” (priority 2004, published 2007)",
  "origin": "cited, not measured here",
  "note": "Structures can show the parent of a compound that is named as a salt.",
  "data": [
    {"compound": "CCOc1ccccc1OCCN[C@H](C)Cc1ccc(OC)c(S(N)(=O)=O)c1", "note": "[Tamsulosin hydrochloride, tamsulosin hydrochloride]", "values": [
      {"measurement": "water-solubility", "result": "low water-solubility"}
    ]}
  ]
}
